From patent publication US20230138393A1, “LINKING AMINO ACID SEQUENCES, MANUFACTURING METHOD THEREOF, AND USE THEREOF” (priority 2020, published 2023)

Assays:
[1] = test system: DLD-1 cells; conditions: literature; cited from earlier work
[2] = test system: DLD-1 cells; experiment: Cell penetration assay of FITC-labelled Axin analogues (confocal imaging); assay type: cell-based; conditions: 10 μM
Method: Images were analyzed with NIH ImageJ software.
Cell Penetration Assay: DLD-1 cells were seeded on 35 mm optical dishes at 3e5 per well and were incubated overnight at 37° C./5% CO2. […] Cells were imaged in buffer mimicking the physiological conditions in the cytoplasm (20 mM HEPES, 110 mM KOAc, 5 mM NaOAc, 2 mM MgOAc, 1 mM EGTA, pH 7.3).

CC[C@H](C)[C@@H]1NC(=O)[C@@](C)(NC(=O)[C@H](CCC(N)=O)NC(=O)[C@@H]2CCCN2C(=O)[C@H](Cc2c[nH]c3ccccc23)NC(=O)[C@H](CCCNC(=N)N)NC(=O)COCCOCCNC(=S)Nc2ccc3c(c2)C(=O)OC32c3ccc(O)cc3Oc3cc(O)ccc32)CCCC=CCCC[C@@](C)(C(=O)N[C@@H](Cc2c[nH]cn2)C(=O)N[C@H](C(=O)N[C@@H](CCCNC(=N)N)C(=O)N[C@@H](CCCNC(=N)N)C(=O)N[C@H](C(=O)N[C@@H](Cc2c[nH]c3ccccc23)C(=O)N[C@@H](CCCNC(=N)N)C(N)=O)C(C)C)C(C)C)NC(=O)[C@H](CC(=O)O)NC(=O)[C@H](CC(C)C)NC1=O [Peptide 51, reference compound]
reported cell permeability to DLD-1 cells [1]: limited cell permeability | cellular uptake by confocal fluorescence microscopy (in words) [2]: much weaker fluorescence
